Experiment: Precipitation of ligand in crystal soaking solution
Assay type: physicochemical
Method: The pooled fractions were dialyzed against 300 mM NaCl, 10 mM Hepes pH 7.5, 5 mM DTT overnight at 4° C. then concentrated to 10.9 mg/mL in a Vivaspin centrifugal concentrator (MWCO=10 kDa). Crystals were obtained at 20° C. in sitting drop plates using 1 μl of protein and 1 μl of crystallant (20% PEG 3000, 100 mM Citrate pH 5.5) equilibrated against 200 μl of crystallant in the reservoir. Plate-shaped crystals were observed after approximately 24 hours. A single crystal was transferred from the crystallization drop to a plate containing crystallant and 11.5 mM Cpd. No. 1. The crystal was soaked for 22.5 hours in this solution. […] The crystal was transferred to a cryoprotectant containing 20% PEG 3000, 100 mM Citrate pH 5:5, 15% glycerol then plunge frozen into liquid nitrogen for X-ray diffraction analysis.
The pooled fractions were dialyzed against 300 mM NaCl, 10 mM Hepes pH 7.5, 5 mM DTT, 10% glycerol overnight at 4° C. then concentrated to 10.0 mg/mL in a Vivaspin centrifugal concentrator (MWCO=10 kDa). Crystals were obtained at 20° C. in sitting drop plates using 1 μl of protein and 1 μl of crystallant (20% PEG 3000, 100 mM Citrate pH 5.5) equilibrated against 200 μl of crystallant in the reservoir. Plate-shaped crystals were observed after approximately 24 hours. […]

| concentration of the ligand in solution (soak solution 30% PEG 3000, 50 mM Citrate pH 5.5, 5% DMSO, 2.4 mM added, 23.5 hours, some precipitation observed) | precipitation at the end of the soak (crystallant (20% PEG 3000, 100 mM Citrate pH 5.5) with 11.5 mM compound, 22.5 hours) | SMILES |
| --- | --- | --- |
| less than 2.4 mM |  | COc1cc(Nc2ncc(F)c(Nc3ccc4c(n3)NC(=O)C(C)(C)O4)n2)cc(OC)c1OC [Cpd. No. 3] |
|  | Some precipitation | Oc1cccc(Nc2ncc(F)c(Nc3cccc(O)c3)n2)c1 [Cpd. No. 1] |

From patent US7962290B1, “Identification of pharmacophores from co-crystals of spleen tyrosine kinase (SYK) and SYK ligands” (Rigel Pharmaceuticals, Inc., priority 2006, dated 2011)
